From US12492173B2, “Herbicidal substituted N-tetrazolyl aryl carboxamides” (Bayer Aktiengesellschaft, priority 2019, dated 2025)

Legend:
Format in all cases: in vivo
Stellaria media = assay: Post-emergence herbicidal action, STEME; set-up: key: % herbicidal action vs untreated; 100 = plants died, 0 = like control; details: for Herbicidal action against STEME: comparative experiment
Summary of the method: (§1)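 Foliar application at the one-leaf stage of greenhouse-grown plants in sandy loam; compound applied as WP or EC in 600–800 l/ha water containing 0.2% wetting agent. Scores are visual percentages (0% like control, 100% plants died) taken after roughly 3 weeks.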

Matricaria inodora = assay: Post-emergence herbicidal action, MATIN; set-up: key: % herbicidal action vs untreated; 100 = plants died, 0 = like control
Summary of the method: as §1

Amaranthus retroflexus = assay: Pre-emergence herbicidal action, AMARE; set-up: key to Herbicidal action against AMARE: % activity: 100 = plants have died, 0 = like control plants; details: for herbicidal action AMARE / herbicidal activity AMARE: dosage 320 g/ha; for herbicidal activity AMARE: scored visually after 3 weeks vs untreated controls (100% = plants have died); for Herbicidal action against AMARE: comparative experiment
Summary of the method: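 Application took place on the soil surface immediately after sowing into sandy loam, using aqueous WP or EC preparations with 0.2% wetting agent. Visual percent scoring followed 3 weeks later, untreated pots serving as reference.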

Polygonum convolvulus = assay: Post-emergence herbicidal action, POLCO
Summary of the method: as §1

Lolium multiflorum = assay: Pre-emergence herbicidal action, LOLMU; details: dosage 320 g/ha, scored visually after 3 weeks vs untreated controls (100% = plants have died)
Text: 1. Pre-Emergence Herbicidal Action Against Harmful Plants Seeds of monocotyledonous and dicotyledonous weed plants and crop plants are laid out in sandy loam soil in wood-fiber pots and covered with soil. The compounds of the invention, formulated in the form of wettable powders (WP) or as emulsion concentrates (EC), are then applied to the surface of the covering soil in the form of an aqueous suspension or emulsion at a water application rate equating to 600 to 800 l/ha, with addition of 0.2% wetting agent. After the treatment, the pots are placed in a greenhouse and kept under good growth conditions for the trial plants. The damage to the test plants is scored visually after a test period of 3 weeks by comparison with untreated controls (herbicidal activity in percent (%): 100% activity=the plants have died, 0% activity=like control plants). […] The tables below illustrate, in an exemplary manner, the […] herbicidal action of the compounds according to the invention, the herbicidal activity being stated in percent. [table] In the experiments that follow, herbicidal action of numerous inventive compounds and the known compounds that are structurally closest from D1 (WO 2012/028579 A1) and D2 (WO 2018/202535 A1) were compared under the above-specified conditions by the pre-emergence and post-emergence method. The example numbers given in the tables relate to the compounds disclosed in the respective documents. In addition to the compounds disclosed in D1 and D2, the following compounds V-1 to V-14 that are encompassed by D1 or D2 but are not compounds specified therein were used in the comparative experiments: • V-1: 2-(methylsulfanyl)-3-(methylsulfinyl)-N-(1-methyl-1H-tetrazol-5-yl)-4-(trifluoromethyl)benzamide • V-2: 2-(methylsulfanyl)-3-(methylsulfonyl)-N-(1-methyl-1H-tetrazol-5-yl)-4-(trifluoromethyl)benzamide • V-3: 2,3-bis(ethylsulfanyl)-N-(1-methyl-1H-tetrazol-5-yl)-4-(trifluoromethyl)benzamide • V-4: 2-chloro-3-(ethylsulfanyl)-N-(1-methyl-1H-tetrazol-5-yl)-4-(trifluoromethyl)benzamide • V-5: 2-chloro-4-iodo-3-(methylsulfanyl)-N-(1-methyl-1H-tetrazol-5-yl)benzamide • V-6: 2-chloro-4-iodo-3-(methylsulfinyl)-N-(1-methyl-1H-tetrazol-5-yl)benzamide • V-7: 2-chloro-4-iodo-3-(methylsulfonyl)-N-(1-methyl-1H-tetrazol-5-yl)benzamide • V-8: 2-bromo-3-(methylsulfanyl)-N-(1-methyl-1H-tetrazol-5-yl)-4-(trifluoromethyl)benzamide • V-9: 2-bromo-3-(methylsulfinyl)-N-(1-methyl-1H-tetrazol-5-yl)-4-(trifluoromethyl)benzamide • V-10: 2-bromo-3-(methylsulfonyl)-N-(1-methyl-1H-tetrazol-5-yl)-4-(trifluoromethyl)benzamide • V-11: 2-bromo-3-(ethylsulfanyl)-N-(1-methyl-1H-tetrazol-5-yl)-4-(trifluoromethyl)benzamide • V-12: 2-bromo-3-(ethylsulfinyl)-N-(1-methyl-1H-tetrazol-5-yl)-4-(trifluoromethyl)benzamide • V-13: 2-bromo-3-(ethylsulfonyl)-N-(1-methyl-1-1H-tetrazol-5-yl)-4-(trifluoromethyl)benzamide • V-14: 2-cyclopropyl-3-(ethylsulfanyl)-N-(1-methyl-1H-tetrazol-5-yl)-4-(trifluoromethyl)benzamide Herbicidal Pre-Emergence Action: […]

[1] = comparative experiment, post-emergence, 20 g of a.i./ha

| Structure (SMILES) | herbicidal action STEME (Stellaria media; Dosage 80 g/ha) | herbicidal action MATIN (Matricaria inodora; Dosage 80 g/ha) | herbicidal action AMARE (Amaranthus retroflexus) | herbicidal action POLCO (Polygonum convolvulus; Dosage 80 g/ha) | other results |
| --- | --- | --- | --- | --- | --- |
| CCCn1nnnc1NC(=O)c1ccc(C(F)(F)F)c(CSCC(F)(F)F)c1Cl [Example 3-311] | 100 | 100 | 100% | 80 | – |
| CCCn1nnnc1NC(=O)c1ccc(C(F)F)c(CS(C)(=O)=O)c1Cl [Example 3-322] | 100 | 90 | – | 80 | herbicidal activity LOLMU (Lolium multiflorum): 80%; herbicidal activity AMARE (Amaranthus retroflexus): 100% |
| Cc1c(C(=O)Nc2nnnn2C)ccc(C(F)F)c1C[S+](C)[O-] (stereo not drawn) [Example 1-108] | 100 | 100 | 100% | – | – |
| CSCc1c(Cl)ccc(C(=O)Nc2nnnn2C)c1Cl [Example 1-559] | – | – | 100% | – | herbicidal action STEME (Stellaria media; post-emergence, dosage 80 g/ha): 100%; herbicidal action MATIN (Matricaria inodora; post-emergence, dosage 80 g/ha): 100% |
| CCSCc1c(C(F)(F)F)ccc(C(=O)Nc2nnnn2CC)c1C [Example 2-86] | – | – | 100% | – | herbicidal action STEME (Stellaria media; post-emergence, dosage 80 g/ha): 100%; herbicidal action MATIN (Matricaria inodora; post-emergence, dosage 80 g/ha): 100%; herbicidal action POLCO (Polygonum convolvulus; post-emergence, dosage 80 g/ha): 100% |
| CCCn1nnnc1NC(=O)c1ccc(C(F)(F)F)c(C[S+](C)[O-])c1OC (stereo not drawn) [Example 3-135] | 100 | 100 | 100% | 100 | – |
| CCCn1nnnc1NC(=O)c1ccc(S(C)(=O)=O)c(CS(C)(=O)=O)c1C [Example 3-39] | 90 | 80 | 100% | – | – |
| CCS(=O)(=O)c1c(C(F)(F)F)ccc(C(=O)Nc2nnnn2C)c1Br [Example V-13, 2-bromo-3-(ethylsulfonyl)-N-(1-methyl-1-1H-tetrazol-5-yl)-4-(trifluoromethyl)benzamide, reference compound] | – | – | – | – | Herbicidal action against STEME (Stellaria media; post-emergence, 20 g of a.i./ha): 0; Herbicidal action against MATIN (Matricaria inodora; [1]): 0; Herbicidal action against AMARE (Amaranthus retroflexus; 80 g of a.i./ha): 0; Herbicidal action against POLCO (Polygonum convolvulus; [1]): 0 |
| Cc1ccc(C(=O)Nc2nnnn2C)c(Cl)c1C[S+](C)[O-] (racemic) [Example 1-288] | 100 | 100 | 100% | – | – |
| COc1c(C(=O)Nc2nnnn2C)ccc(C(F)(F)F)c1C[S+](C)[O-] (stereo not drawn) [Example 1-135] | 90 | 100 | 100% | – | – |
| CCCn1nnnc1NC(=O)c1ccc(C(F)(F)F)c(CS(=O)(=O)CC)c1Cl [Example 3-301] | 100 | 100 | 100% | 100 | – |
| CCn1nnnc1NC(=O)c1ccc(C(F)F)c(C[S+](C)[O-])c1SC (stereo not drawn) [Example 2-171] | 100 | 100 | – | 90 | herbicidal activity AMARE (Amaranthus retroflexus): 100% |
| CCCn1nnnc1NC(=O)c1ccc(C(F)F)c(CSC)c1SC [Example 3-170] | 100 | 100 | – | 90 | herbicidal activity AMARE (Amaranthus retroflexus): 100% |
| CCn1nnnc1NC(=O)c1ccc(C(F)(F)F)c(CS(=O)(=O)CC)c1C [Example 2-88] | 100 | 90 | 100% | – | – |
| CCn1nnnc1NC(=O)c1ccc(C(F)F)c(C[S+](C)[O-])c1C (stereo not drawn) [Example 2-108] | 100 | 100 | 100% | – | – |
| CCSCc1c(C(F)(F)F)ccc(C(=O)Nc2nnnn2C)c1SCC [Example 1-182] | 100 | 90 | – | – | Herbicidal action against STEME (Stellaria media; post-emergence, 5 g of a.i./ha): 90; herbicidal activity LOLMU (Lolium multiflorum): 90%; Herbicidal action against AMARE (Amaranthus retroflexus; 20 g of a.i./ha): 70; herbicidal activity AMARE (Amaranthus retroflexus): 100% |
